What all share (experiment): NCI anticancer screen, dose series, 48 h
Assay [1] deals with ACHN renal.
Assay [2] relates to EKVX NSCLC.
Assay [3] deals with HCC-2998 colon.
The test system of assay [4] is MALME-3M melanoma.
The subject of assay [5] is MDA-N.
The subject of assay [6] is OVCAR-3 ovarian.
Assay [7] concerns PC-3 prostate.
Assay [8] concerns RXF 393 renal.
Assay [9] relates to SK-OV-3 ovarian.

Molecules are shown by their SMILES.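 Five concentrations, 48 hours, 96-well plates. The concentration for full growth arrest is given as TGI.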

Drawing on PubChem BioAssay (NCI), this text covers TGI for 22 compounds.

With `CC(C)CC(NC(=O)C(COc1ccc([N+](=O)[O-])cc1)Cc1ccccc1)C(=O)Nc1ccccc1` (stereo unspecified), the TGI is more than 100 µM in assay [1]; 91.4 µM in assay [2]; 80.2 µM in [3]; 18 µM in assay [4]; more than 100 µM in assay [5]; more than 100 µM in assay [6]. Also, the values for the TGI in assay [7], in [8] and in assay [9] were more than 100 µM, 41.6 µM and 28.5 µM, respectively.

`COc1ccc(C(C)NNC(=O)c2ccncc2)cc1F` (stereo unspecified): the TGI in assay [1], in assay [2], in [3], in [4], in assay [5] and in assay [6] was more than 100 µM throughout. For the same compound, the TGI in assay [7], in assay [8] and in [9] was more than 100 µM throughout.

Consider `Cc1nn(-c2ccccn2)c2c1C(SC#N)=C(C=O)CC2`, for which the TGI in [1] is 29.8 µM; in assay [2] it was 36.1 µM; in [3], 24.2 µM; in assay [4], 36.2 µM; in [5], 38.6 µM; in [6], 26.5 µM. The TGI came to 33.8 µM in assay [7], 17.6 µM in [8] and 61.5 µM in [9].

For `c1ccc(CNc2ncnc3n[nH]nc23)cc1`, the TGI in assay [1], in assay [2], in assay [3], in [4], in [5] and in [6] was more than 100 µM each time. The TGI in [7], in assay [8] and in assay [9] was more than 100 µM each time.

On to `N#Cc1c(C#N)c(-c2ccccc2)n(/N=C\c2ccccc2)c1N`, for which the TGI was more than 100 µM in assay [1]; 63.9 µM in assay [2]; 89.9 µM in assay [3]; more than 100 µM in [4]; more than 100 µM in assay [5]; 48.1 µM in [6]. Besides, the TGI in assay [7] is 49.4 µM; in assay [8], 70.5 µM; in assay [9] it was 70.2 µM.

Consider `O=C(NC/C=C/Br)NC1CCNc2ccccc21` (stereo unspecified), for which the TGI was more than 100 µM in assay [1]; 92.6 µM in [2]; 59 µM in [3]; 77.9 µM in [4]; more than 100 µM in assay [5]; more than 100 µM in assay [6]. For the same compound, the TGI in [7], in [8] and in assay [9] was more than 100 µM in each case.

As to `COc1ccccc1N1C(=O)/C(=C\c2cccc(Oc3ccccc3)c2)S(=O)(=O)C1c1ccccc1` (stereo unspecified), the TGI in assay [1], in [2], in assay [3], in assay [4], in assay [5] and in assay [6] was more than 100 µM throughout. Also, the TGI in [7], in assay [8] and in [9] was more than 100 µM throughout.

For `CCCC(=O)OC1CC(n2cc(F)c(=O)[nH]c2=O)OC1CO` (stereo unspecified), the TGI in assay [1], in assay [2], in assay [3], in assay [4], in assay [5] and in assay [6] was more than 10 µM in each case. Besides, the TGI in assay [7], in assay [8] and in [9] was more than 10 µM in each case.

Take `CN(C)c1ccc(/C=C2\C[C@H]3[C@@H]4CCc5cc(O)ccc5[C@H]4CC[C@]3(C)C2=O)cc1`: the TGI in assay [1], in [2], in assay [3], in assay [4], in assay [5] and in [6] was more than 100 µM throughout. For the same compound, the TGI in assay [7], in assay [8] and in assay [9] was more than 100 µM throughout.

As to `COc1cc(-c2[o+]c3cc(O)cc(OC4OC(CO)C(O)C(O)C4O)c3cc2OC2OC(CO)C(O)C(O)C2O)cc(OC)c1O` (stereo unspecified), the TGI in [1], in assay [2], in assay [3], in [4], in assay [5] and in assay [6] was more than 100 µM each time. The TGI in [7], in [8] and in assay [9] was more than 100 µM each time.

On to `Cc1nnc2sc(-c3ccc([N+](=O)[O-])o3)nn12`, for which the TGI in [1] was 23.2 µM; in [2], 37.7 µM; in assay [3], 25 µM; in assay [4], 14.3 µM; in assay [5], 19.4 µM; in [6], 25.4 µM. Also, the figures for the TGI in assay [7], in [8] and in assay [9] were 27.9 µM, 25.9 µM and 32.7 µM, respectively.

As to `COC(=O)C(C(=O)OC)C1CC(=O)c2c(Br)sc(Br)c21` (stereo unspecified), the TGI is 26.6 µM in assay [1]; 32.4 µM in [2]; 27.4 µM in [3]; 40 µM in assay [4]; more than 100 µM in assay [5]; 17.5 µM in [6]. Also, the TGI in assay [7] was determined as 29 µM; in [8], 84.4 µM; in assay [9], 44 µM.

As to `O=S(=O)(O)c1ccc(Nc2ccnc3cc(Cl)ccc23)cc1`, the TGI in [1], in assay [2], in assay [3], in assay [4], in assay [5] and in assay [6] was more than 100 µM in each case. Besides, the TGI in assay [7], in assay [8] and in [9] was more than 100 µM each time.

Consider `Cc1nnc(CC#N)n1NC(=O)CC#N`, for which the TGI in assay [1], in assay [2], in assay [3], in [4], in [5] and in assay [6] was more than 100 µM throughout. The TGI in [7], in assay [8] and in assay [9] was more than 100 µM in each case.

With `COC(=O)c1c(C#C[Si](C)(C)C)c(C#C[Si](C)(C)C)c(C#C[Si](C)(C)C)c(C#C[Si](C)(C)C)c1C(=O)OC`, the TGI in [1], in assay [2], in [3], in assay [4], in assay [5] and in assay [6] was more than 100 µM throughout. The TGI in assay [7], in assay [8] and in assay [9] was more than 100 µM each time.

As to `COC(=O)C[C@H](CCSC)NC(=O)C[C@H](CCSC)NC(=O)C[C@H](CCSC)NC(=O)OC(C)(C)C`, the TGI was more than 100 µM in [1]; more than 100 µM in assay [2]; more than 100 µM in assay [3]; more than 100 µM in assay [4]; more than 100 µM in assay [5]; 48 µM in assay [6]. The TGI in assay [7] was more than 100 µM; in assay [8] it was 33.6 µM; in [9] it was 40 µM.

For the compound `CC1(O)C(=O)OC2CC([C@]3(O)CCC4[C@@H]5C[C@H]6O[C@]67[C@@H](O)C=CC(=O)[C@]7(C)C5CC[C@@]43C)C1(C)C2` (stereo partly specified), the TGI was 73.8 µM in assay [1]; more than 100 µM in assay [2]; more than 100 µM in [3]; 16.6 µM in [4]; 17.9 µM in assay [5]; 35 µM in assay [6]. The TGI is 50.5 µM in assay [7], 13.2 µM in assay [8] and more than 100 µM in assay [9].

In the case of `O=C(NCc1cccnc1)C(=O)NCc1cccnc1`, the TGI in [1], in [2], in assay [3], in assay [4], in [5] and in assay [6] was more than 100 µM each time. The TGI in assay [7], in assay [8] and in assay [9] was more than 100 µM in each case.

As for `CSc1ccccc1P(CCP(c1ccccc1SC)c1ccccc1SC)c1ccccc1SC`, the TGI was more than 100 µM in assay [1]; 97.7 µM in assay [2]; more than 100 µM in assay [3]; more than 100 µM in assay [4]; more than 100 µM in [5]; more than 33.5 µM in [6]. The TGI in assay [7] is more than 100 µM; in [8] it was more than 84.9 µM; in assay [9], more than 55.4 µM.

As to `C=CCn1c(=O)c2ccccc2[n+]2c(-c3cccc([N+](=O)[O-])c3)csc12`, the TGI in [1], in assay [2], in assay [3], in assay [4], in assay [5] and in [6] was more than 100 µM in each case. In addition, the TGI in assay [7], in [8] and in assay [9] was more than 100 µM throughout.

With `CC1(C)Oc2ccc3c(=O)c4ccccc4oc3c2C1C(=O)O` (stereo unspecified), the TGI in assay [2], in assay [3], in assay [4], in assay [5], in [6] and in assay [7] was more than 100 µM in each case. Besides, the TGI in [8] and in assay [9] was more than 100 µM each time.

In the case of `CSC1NNC2(C(=O)N1)c1ccccc1-c1ccccc12` (stereo unspecified), the TGI in assay [1], in assay [2], in assay [3], in assay [4], in assay [5] and in assay [7] was more than 10 µM each time. The TGI in [8] and in [9] was more than 10 µM each time.
